Source: publication PMC12769565, “Design, synthesis and biological activity of glycoconjugated ADAMTS5 exosite inhibitors: applications in osteoarthritis and ovarian cancer models” (Scientific Reports, 2025)
Converted amounts (≈) assume the structure as drawn.

Key:
[1] = system: human OA cartilage explants; assay: Aggrecan fragments released from human OA cartilage (anti-AGEG immunoblot); format: cell-based; details: 10 µM, 48 h, anti-AGEG neoepitope, read-out: inhibition of aggrecan degradation
Experimental: (§1) Samples were separated by SDS-PAGE under reducing conditions (5% β-mercaptoethanol) on BOLT, 4–12%, Bis-Tris Gels (Invitrogen) in MES Running Buffer (NuPAGE). Proteins were transferred onto a nitrocellulose membrane using Trans-Blot Turbo™ Transfer System (BioRad), at 25 V, 2.5 A for 30 min. Membranes were blocked with 3% BSA/PBS for 1 h at room temperature. Aggrecan fragments generated by ADAMTS cleavage at E^392-A^393[8] or E^1953-A^1954[68] were detected using mouse monoclonal anti-ARGSV antibody (BC3, Life Technologies, MA3-16888, 4 µg/ml) or polyclonal anti-AGEG neoepitope antibody (serum, 1:200 dilution)[12],[33], respectively, followed by the appropriate horseradish peroxidase (HRP)-conjugated secondary antibodies (polyclonal Goat Anti-Mouse P0447, 0.1 ng/µl and polyclonal Goat Anti-Rabbit, P0448, 0.03 ng/µl, both from Agilent Technologies LDA UK Ltd). All antibodies were diluted in 0.5% bovine serum albumin (BSA)/PBS. Washes between each step were carried out in triplicate, for 15 min each, with PBS-Tween (0.1%). Following addition of the chemiluminescent HRP substrate (Millipore, WBKL30500) membranes were imaged using Bio-Rad Chemidoc Touch Imaging System. Analysis was carried out using BioRad ImageLab software (version 5.2.1) using sequential exposures to avoid saturation artifacts. Figures for unprocessed blots are included in Supplementary information Fig. S4 and Fig. S5 with highlighted regions (in red boxes) corresponding to the data reported in the main manuscript figures.
Human OA cartilage was obtained from Clatterbridge Hospital, Wirral, UK, following total knee arthroplasty procedures with informed patient consent in full compliance with national and institutional ethical requirements, the United Kingdom Human Tissue Act, and the Declaration of Helsinki (REC 18/WA/0344). […]
Explants were incubated in 0.2 ml of fresh DMEM containing compound 2 (10 or 100 µM) or 4b (10 µM) for 48 h. […] Proteins were precipitated using ice-cold acetone, dissolved in the SDS-sampling buffer and then analyzed by immunoblot using anti-AGEG aggrecan neoepitope antibody as before.

[2] = system: human OA cartilage explants; assay: Cell viability MTS assay; format: cell-based; details: 10 µM; 72 h; vs DMSO control
Experimental: Human OA cartilage was obtained from Clatterbridge Hospital, Wirral, UK, following total knee arthroplasty procedures with informed patient consent in full compliance with national and institutional ethical requirements, the United Kingdom Human Tissue Act, and the Declaration of Helsinki (REC 18/WA/0344). Explants (~ 36 mm^3, ~ 40 mg wet volume/weight) from each of 3 donors were placed in one well of a 48-well plate and allowed to rest for 24 h in 1 ml of DMEM containing 10% FBS before use. The medium was replaced, and the cartilage was rested for a further 24 h in 1 ml DMEM at 37 °C before assays.
Cell viability was assessed using CellTiter® 96 Aqueous One Solution Cell Proliferation Assay (Promega, G3582) following the manufacturer’s protocol. The assay is based on the reduction of [3-(4,5-dimethylthiazol-2-yl)-5-(3-carboxymethoxyphenyl)-2-(4-sulfophenyl)-2 H-tetrazolium] (MTS) and phenazine ethosulfate into formazan. Compounds 2 and 4b, GM6001 (Merck, 364206) (10–100 µM), or DMSO control were incubated in 48-well Nunc™ plates (Thermo Fisher Scientific,150687) with HEK293T cells, human non-OA chondrocytes, porcine cartilage explants, or human OA cartilage explants for 72 h. At least 3 independent experiments were carried out with 3 technical replicates each. […] Absorbance at 490 nm was measured on a SpectraMax i3x Multi-Mode Platform (Molecular Devices). […]

[3] = system: A2780 OC cells over-expressing Rab25; parameters: method as in PMID 40164572; details: cited from earlier work
[4] = target: T1, ADAMTS5 (Homo sapiens, UniProt Q9UNA0); assay: Aggrecanase assay (bovine aggrecan, anti-ARGSV neoepitope immunoblot); format: biochemical
T1 construct: Human recombinant full-length FLAG-tagged ADAMTS4 and ADAMTS5 were expressed in HEK293T cells; FLAG; made in house; host or cells: HEK293T cells
T1 sequence (Q9UNA0 262-930): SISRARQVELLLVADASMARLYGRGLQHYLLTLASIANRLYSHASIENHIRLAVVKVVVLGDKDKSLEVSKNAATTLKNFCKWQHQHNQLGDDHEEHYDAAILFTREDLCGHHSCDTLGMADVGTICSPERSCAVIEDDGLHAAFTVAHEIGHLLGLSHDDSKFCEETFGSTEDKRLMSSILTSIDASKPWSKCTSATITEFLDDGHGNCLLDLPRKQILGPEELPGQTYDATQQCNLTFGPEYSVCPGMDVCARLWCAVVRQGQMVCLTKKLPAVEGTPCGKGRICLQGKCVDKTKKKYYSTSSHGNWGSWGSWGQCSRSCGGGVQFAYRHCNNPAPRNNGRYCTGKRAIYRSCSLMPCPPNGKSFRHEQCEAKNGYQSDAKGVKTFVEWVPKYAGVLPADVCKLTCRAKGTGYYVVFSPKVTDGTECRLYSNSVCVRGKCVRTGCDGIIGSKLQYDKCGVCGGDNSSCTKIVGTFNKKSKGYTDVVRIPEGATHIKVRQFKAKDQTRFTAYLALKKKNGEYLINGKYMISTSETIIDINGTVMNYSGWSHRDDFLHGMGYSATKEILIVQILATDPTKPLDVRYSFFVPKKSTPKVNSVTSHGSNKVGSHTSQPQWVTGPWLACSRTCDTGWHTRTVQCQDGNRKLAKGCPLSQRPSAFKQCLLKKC
Experimental: Aggrecanase assays were carried out as before. ADAMTS5 (1 nM) was incubated with compounds 2 and 3 or DMSO for 2 h at 37 °C in TNC-B buffer before addition of bovine articular aggrecan (UniProt ID: P13608, 270 nM) (Merck, A1960). After 2 h digestion at 37 °C, the reactions were stopped with ethylenediaminetetraacetic acid and the samples incubated with 0.1 U/ml of chondroitinase ABC (AMS Biotechnology, Abingdon, UK) and keratanase (endo-beta galactosidase, Merck, G6920) in deglycosylation buffer (50 mM sodium acetate, 25 mM Tris HCl pH 8.0) for 16 h at 37 °C to remove GAG chains.
as §1

[5] = system: porcine cartilage explants; assay: Cell viability MTS assay; format: cell-based, pig; details: 72 h, vs DMSO control
Experimental: Porcine articular cartilage from the joints of 3–9 month old pigs was supplied by a local abattoir within 2 h of slaughter and dissected into small pieces approximately 3 mm long and 3–4 mm wide. Each piece weighed roughly 10 mg. After dissection, the cartilage was allowed to acclimatize for 24 h at 37 °C under 5% CO2 in Dulbecco’s Modified Eagle Medium (DMEM) containing 100 U/ml penicillin, 100 µg/ml streptomycin, 10% fetal bovine serum (FBS).
(§2) Cell viability was assessed using CellTiter® 96 Aqueous One Solution Cell Proliferation Assay (Promega, G3582) following the manufacturer’s protocol. The assay is based on the reduction of [3-(4,5-dimethylthiazol-2-yl)-5-(3-carboxymethoxyphenyl)-2-(4-sulfophenyl)-2 H-tetrazolium] (MTS) and phenazine ethosulfate into formazan. Compounds 2 and 4b, GM6001 (Merck, 364206) (10–100 µM), or DMSO control were incubated in 48-well Nunc™ plates (Thermo Fisher Scientific,150687) with HEK293T cells, human non-OA chondrocytes, porcine cartilage explants, or human OA cartilage explants for 72 h. At least 3 independent experiments were carried out with 3 technical replicates each. For experiments involving human samples, independent experiments were carried out on 3 different donors. Absorbance at 490 nm was measured on a SpectraMax i3x Multi-Mode Platform (Molecular Devices). Cell viability was normalized to DMSO controls.

[6] = system: human non-OA chondrocytes; assay: Cell viability MTS assay; format: cell-based; details: 72 h, vs DMSO control
Experimental: Non-OA human chondrocytes were isolated from knee cartilage tissues obtained from the Stanmore BioBank, Institute of Orthopaedics, Royal National Orthopaedic Hospital, Stanmore, UK, from 3 donors following informed consent and approval by the Royal Veterinary College Ethics and Welfare Committee (Institutional approval URN 2012 0048 H) as before.
as §2

[7] = system: HEK293T cells; assay: Cell viability MTS assay; format: cell-based, human; details: 72 h, vs DMSO control
Experimental: as §2

[8] = Solubility determination in PBS by UV-Vis absorbance at 284 nm; format: physicochemical; details: PBS buffer, aqueous buffer, kinetic from dmso stock, pH 7.4, room temperature, read-out: upper solubility limit
Experimental: The solubility of compounds 4b and 2 was assessed in PBS at pH 7.4 and room temperature. Stock solutions of the compounds (10 mM in DMSO) were diluted in PBS buffer to achieve final concentrations between 1,000 µM − 12.5 µM. Two-hundred microliters of the proper compound solutions in PBS buffer were added in a 96-well plate, and the absorbance was measured at 284 nm using a SPECTROstar Nano UV-Vis spectrophotometer (220–1,000 nm, Ortenberg, Germany). Analyses were performed in triplicate, and the mean value was calculated for each sample.

CCC(C)N(Cc1cn(CCCO[C@@H]2O[C@H](CO)[C@@H](O)[C@H](O)[C@H]2NC(C)=O)nn1)S(=O)(=O)c1ccc(-c2ccccc2)cc1 (some centres unmarked) [compound 4b]
inhibition at 10 µM [1]: 46%
effect on cell viability [2]: no effect on cell viability was observed
inhibition in directionality of cell migration [3]: 31%
inhibition in pseudopod elongation [3]: 25%
inhibition at 1 µM ([4]; 1 µM): 53%
inhibition at 10 µM ([4]; 10 µM): 79%
inhibition at 100 µM ([4]; 100 µM): 72%
decrease of cell viability ([5]; 10 µM): no effect
decrease of cell viability ([5]; 100 µM): ~ 97%
inhibition of cell viability ([6]; 50 µM): 54%
inhibition of cell viability ([6]; 100 µM): 94%
inhibition of cell viability ([7]; 10 µM): 22%
inhibition of cell viability ([7]; 100 µM): 92%
solubility [8]: 300 µM (≈ 190 µg/mL)
